We go through one compound from paper PMC10144134, “Characterization of Potent ABCG2 Inhibitor Derived from Chromone: From the Mechanism of Inhibition to Human Extracellular Vesicles for Drug Delivery” (Pharmaceutics, 2023).

The subject of one series is T1, MRP1.
T1 construct: expressed in transfected cells; host or cells: BHK21 (stably transfected, methotrexate selection; gift of Dr. Attilio Di Pietro)
Nature of the series: Cell-based transport assay by flow cytometry, BHK21-ABCC1. On the set-up: species or system human. Conditions: 10 µM, calcein-AM 0.2 µM. The method, then: Cell lines (HEK293-ABCG, NIH3T3-ABCB1 and BHK21-ABCC1) were kept at 37 °C in the presence of 5% CO2 in DMEM high glucose (Gibco, Sao Paulo, Brazil) supplemented with 10% Fetal Bovine Serum (Gibco, Sao Paulo, Brazil) and 1% antibiotic (penicillin/streptomycin–Hyclone Laboratories, Logan, UT, USA). The stably transfected cells were kept with specific selection agent for each ABC transporter: ABCG2–G418 0.75 mg/mL, P-gp–Colchicine 60 ng/mL, MRP1–Methotrexate 0.1 mg/mL. The cells HEK293-ABCG2, NIH3T3-ABCB1 and BHK21-ABCC1, overexpressing ABCG2, P-gp and MRP1, respectively, were kindly provided by Dr. Attilio Di Pietro (IBCP, Lyon, France).
Cells were seeded into 24-well plates at a density of 1 × 10^5 cells/well and incubated for 48 h at 37 °C and 5% of CO2. When the confluence reached 90–95%, the medium was removed and the cells were exposed to inhibitors and substrates for 30 min at 37 °C. […] The intracellular fluorescence was recorded by flow cytometry (FACS Calibur–Becton Dickinson, San Diego, CA, USA). […] The inhibition percent was calculated as follows: % of inhibition = ((C − S))/((I − S)) × 100, where “C” represents the treatment with substrate + compound in test, “S” represents the treatment with substrate alone and “I” represents the treatment with substrate + reference inhibitor.

For the next series, the system named is HEK293-ABCG2 cells. The series can be described thus: MTT chemosensitization assay, HEK293-ABCG2. The class given is cell-based, human. The note with it: supernatant containing C4a free at 0.1 to 10 µM + SN38 10 nM. How it is done:
HEK293 WT (wild type) and HEK293-ABCG2 cells were seeded (2.5 × 10^4 cell/well) into a 96-well plate and incubated for 24 h. Cells were concomitantly treated with EVs […]C4a (0.1, 1 and 10 μM) and SN-38 (10 nM) for 72 h. After this period, the medium was removed, cells were washed with PBS (100 μL) and incubated with MTT solution (100 μL of solution 0.5 mg/mL in PBS) for 4 h. Then, the solution was removed, and the formazan crystals were dissolved with 100 μL of ethanol/DMSO (1:1). The absorbance was measured using a microplate reader at 595 nm (Bio-Rad iMark, Hercules, CA, USA).
On the technique in general: Tetrazolium dyes change colour on reduction, which living cells bring about.

The next series can be described thus: Water solubility. The format is physicochemical. The note with it: aqueous.
A further series has as its target T2, ABCG2 versus P-gp (Homo sapiens, UniProt Q9UNQ0).
T2 sequence (Q9UNQ0 1-655): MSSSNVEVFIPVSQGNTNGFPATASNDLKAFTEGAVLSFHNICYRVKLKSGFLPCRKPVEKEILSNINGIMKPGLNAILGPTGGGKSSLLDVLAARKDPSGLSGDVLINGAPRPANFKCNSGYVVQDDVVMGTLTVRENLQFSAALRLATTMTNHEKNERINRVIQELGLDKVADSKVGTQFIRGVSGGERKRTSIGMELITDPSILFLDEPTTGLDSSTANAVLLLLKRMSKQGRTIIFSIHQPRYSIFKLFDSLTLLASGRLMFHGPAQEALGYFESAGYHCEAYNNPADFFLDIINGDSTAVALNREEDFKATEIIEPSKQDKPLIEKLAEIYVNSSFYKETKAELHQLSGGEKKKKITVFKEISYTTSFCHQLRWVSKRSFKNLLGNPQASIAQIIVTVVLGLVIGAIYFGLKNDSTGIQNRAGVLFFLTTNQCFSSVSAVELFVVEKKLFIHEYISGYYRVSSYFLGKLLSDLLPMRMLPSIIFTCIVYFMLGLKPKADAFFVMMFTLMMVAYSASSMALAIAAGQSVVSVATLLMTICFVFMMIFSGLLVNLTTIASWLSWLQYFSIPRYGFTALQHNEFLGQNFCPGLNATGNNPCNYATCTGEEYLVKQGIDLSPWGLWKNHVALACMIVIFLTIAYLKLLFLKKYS
Nature of the series: in vitro. The note with it: high-five membrane vesicles, pH 6.8.

For another series, the target named is P-gp (Homo sapiens, UniProt P08183). Nature of the series: ATPase activity, High-Five P-gp total membrane vesicles.
Series [1] addresses T3, ABCG2 (Homo sapiens, UniProt Q9UNQ0).
T3 sequence (Q9UNQ0 1-655): T2 sequence (Q9UNQ0 1-655)
Nature of the series: ATPase activity, High-Five ABCG2 total membrane vesicles.
Method: (§1) The absorbance was measured after 10 min incubation at room temperature using the spectrophotometer Ultrospec 3100 pro (Amersham Biosciences, Amersham, UK) at 880 nm wavelength.

The target of series [2] is T3, ABCG2. Nature of the series: 5D3 shift assay. The class given is cell-based. On the set-up: expressed in transfected cells; host or cells: HEK293 (stably transfected, G418 selection; gift of Dr. Attilio Di Pietro). The note with it: C4a 10 µM, Ko143 2 µM, HEK293-ABCG2.
Method: HEK293-ABCG2 cells were seeded into 24-well plates at a density of 2 × 10^5 cells/well. When the confluence reached 90–95%, the medium was removed and the cells were exposed to inhibitors for 30 min at 37 °C. Then, the cell monolayer was washed with PBS at 37 °C, trypsinized and resuspended with 300 µL of PBS. Cells were centrifuged (1000× g for 3 min). The pellet was resuspended in 100 μL of PBS/BSA (40 μg/mL of BSA) and the primary antibody (mouse anti-human CD338 Clone 5D3, BD Pharmingen, San Diego, CA, USA) was added (1:100) for 30 min at 37 °C. Cells were centrifuged (1000× g, 3 min), the supernatant removed and the pellet resuspended with 100 μL of PBS containing the secondary antibody (goat anti-mouse conjugated with Phycoerythrin, BD Pharmingen, San Diego, CA, USA) at 1:200 for 30 min at 37 °C. Then, cells were centrifuged, the supernatant removed and the pellet was resuspended in 300 μL of PBS. The analysis was performed using a FACS Calibur (Becton Dickinson, San Diego, CA, USA).
The target in series [3] is T3, ABCG2. On the set-up: expressed in transfected cells; host or cells: HEK293 (stably transfected, G418 selection; gift of Dr. Attilio Di Pietro). Conditions: read-out: IC50 of ABCG2 inhibition; cited from earlier work.

P-gp, sequence (P08183 whole entry): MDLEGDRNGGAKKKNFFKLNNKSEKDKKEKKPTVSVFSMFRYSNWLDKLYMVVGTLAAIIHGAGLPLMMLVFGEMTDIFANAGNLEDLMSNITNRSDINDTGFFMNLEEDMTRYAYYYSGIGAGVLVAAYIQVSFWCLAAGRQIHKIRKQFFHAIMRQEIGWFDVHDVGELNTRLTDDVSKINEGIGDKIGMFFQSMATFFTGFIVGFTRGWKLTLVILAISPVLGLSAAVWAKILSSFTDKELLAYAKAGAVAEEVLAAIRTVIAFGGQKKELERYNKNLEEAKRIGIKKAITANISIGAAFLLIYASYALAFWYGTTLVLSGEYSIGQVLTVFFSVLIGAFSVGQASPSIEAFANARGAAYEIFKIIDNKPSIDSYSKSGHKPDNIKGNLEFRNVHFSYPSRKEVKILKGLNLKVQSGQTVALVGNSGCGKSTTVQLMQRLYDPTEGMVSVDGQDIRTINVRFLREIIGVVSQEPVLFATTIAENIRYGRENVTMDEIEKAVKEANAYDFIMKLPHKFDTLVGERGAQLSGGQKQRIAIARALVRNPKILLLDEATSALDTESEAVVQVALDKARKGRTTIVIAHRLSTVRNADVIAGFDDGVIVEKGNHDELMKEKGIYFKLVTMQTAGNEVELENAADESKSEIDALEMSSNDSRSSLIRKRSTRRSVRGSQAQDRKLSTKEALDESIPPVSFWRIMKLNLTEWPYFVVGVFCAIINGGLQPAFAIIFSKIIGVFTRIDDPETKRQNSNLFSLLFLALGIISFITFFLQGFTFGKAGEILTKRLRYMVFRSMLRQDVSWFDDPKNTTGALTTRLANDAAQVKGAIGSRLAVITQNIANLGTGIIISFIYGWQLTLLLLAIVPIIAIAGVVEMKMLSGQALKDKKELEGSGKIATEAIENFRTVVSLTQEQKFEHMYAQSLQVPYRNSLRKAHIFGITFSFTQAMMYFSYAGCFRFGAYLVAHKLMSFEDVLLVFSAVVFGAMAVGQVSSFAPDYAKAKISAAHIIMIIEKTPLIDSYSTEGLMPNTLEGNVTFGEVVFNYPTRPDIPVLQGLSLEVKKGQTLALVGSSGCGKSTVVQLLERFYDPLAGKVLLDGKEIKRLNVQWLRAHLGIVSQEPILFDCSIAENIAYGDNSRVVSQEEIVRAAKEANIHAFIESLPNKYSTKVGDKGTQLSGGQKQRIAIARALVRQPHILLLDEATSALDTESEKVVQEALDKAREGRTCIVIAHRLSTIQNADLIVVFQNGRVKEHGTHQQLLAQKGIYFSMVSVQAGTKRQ
Method for ABCG2 versus P-gp: as §1

Regarding `COc1ccc2[nH]cc(CCNC(=O)c3cc(=O)c4c(OCc5ccccc5Br)cccc4o3)c2c1` [C4a, chromone 4a], the “inhibition of calcein efflux mediated by MRP1” value in the series on MRP1 is “did not inhibit”. Besides, in the series on HEK293-ABCG2 cells, the “reversion of the resistance phenotype mediated by ABCG2, supernatant” value is reported as “complete reversion”. Besides, the solubility result in the series “Water solubility” is given as “low solubility”. Besides, at ABCG2 versus P-gp, the selectivity ratio at 20 min is 67. Moreover, the EC50 (commonly the concentration at which the effect is half-maximal) amounted to 4.3 µM on P-gp and 0.064 µM on ABCG2 [1]. In addition, the “binding of conformational antibody 5D3” value at ABCG2 [2] is reported as “increased the binding of 5D3”. For the same compound, at ABCG2 [3], the IC50 (in general, the concentration at which inhibition is half-maximal) is 0.086 µM.
